Read-outs that look alike come from different tables or passages of the source.
Experiments:
[1] = test system: E. coli S30 extract (bacterial protein synthesis); assay: E. coli S30 extract coupled transcription-translation luciferase assay (inhibition of bacterial protein synthesis); type: biochemical; settings: read-out: S30 IC50 (μM/% inhib.)
How it was run: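 Luciferase luminescence quantified inhibition of protein synthesis relative to water controls, with no-DNA reactions giving background. Compounds in 2-fold serial dilution (8 levels) were incubated 1 hour at 37 °C with E. coli S30 extract, amino acids and pBESTluc plasmid, then chilled to stop.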

[2] = target: Rabbit Reticulocyte Lysate (eukaryotic protein synthesis); assay: Rabbit reticulocyte lysate luciferase assay (inhibition of eukaryotic protein synthesis); type: biochemical; settings: read-out: Rabbit reticulocyte IC50 (μM/% inhib.)
How it was run: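 Percent inhibition calculated against water-only controls from luminescence; background set by lysate lacking RNA. Compounds, 8-point 2-fold titration, incubated 90 minutes at 30° C with nuclease-treated rabbit reticulocyte lysate programmed with luciferase control RNA plus complete amino acids.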

A. baumannn (Ab) = assay: Broth microdilution minimum inhibitory concentration (MIC), CLSI; type: cell-based; settings: for MIC: read-out: Ab + bicarb MIC
How it was run: (§1)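 Bacteria grown at 35±2 °C to 0.5 McFarland turbidity were added at 5×10^4 CFU/well to triplicate two-fold compound series (8 dilutions). Media were cation-adjusted Mueller-Hinton broth alone or with sodium bicarbonate (6.25 or 25 mM final) or heat-inactivated human serum (0–50%), per modified CLSI method.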

E. faecalis (Ef) = assay: as above; type: cell-based; settings: for MIC: Enterococcus faecalis, read-out: Ef + bicarb MIC
How it was run: as §1

S. aureus (Sa) = assay: as above; type: cell-based; settings: for MIC: Staphylococcus aureus, read-out: Sa + bicarb MIC
How it was run: as §1

P. aeruginosa (Pa) = assay: as above; type: cell-based; settings: for MIC: Pseudomonas aeruginosa, read-out: Pa MIC + bicarb
How it was run: as §1

E. coli (Ec) = assay: as above; type: cell-based; settings: for MIC: Escherichia coli, read-out: E. coli + bicarb MIC
How it was run: as §1

[3] = class by IC50 or % inhibition @ 1 μM
[4] = growth medium supplemented with sodium bicarbonate
[5] = A. baumannn, growth medium with sodium bicarbonate
[6] = growth medium with sodium bicarbonate

| SMILES | IC50 [1, 3] [µM] | IC50 [2, 3] [µM] | Ab + bicarb MIC (A. baumannn (Ab); A. baumannii, growth medium supplemented with sodium bicarbonate) | Ef + bicarb MIC (E. faecalis (Ef); [4]) | Sa + bicarb MIC (S. aureus (Sa); [4]) | Pa MIC + bicarb (P. aeruginosa (Pa); [4]) | E. coli + bicarb MIC (E. coli (Ec); [4]) | MIC (A. baumannn (Ab); Acinetobacter baumannii) [mg/L] | MIC (E. faecalis (Ef); [4]) [mg/L] | MIC (S. aureus (Sa); [4]) [mg/L] | MIC (P. aeruginosa (Pa); [4]) [mg/L] | MIC (E. coli (Ec); [4]) [mg/L] | IC50 ([1]; % inhibition @ 1 μM) [µM] | IC50 ([2]; % inhibition @ 1 μM) [µM] | MIC (A. baumannn (Ab); [5]) [mg/L] | MIC (E. faecalis (Ef); [6]) [mg/L] | MIC (S. aureus (Sa); [6]) [mg/L] | MIC (P. aeruginosa (Pa); [6]) [mg/L] | MIC (E. coli (Ec); [6]) [mg/L] |
| --- | --- | --- | --- | --- | --- | --- | --- | --- | --- | --- | --- | --- | --- | --- | --- | --- | --- | --- | --- |
| CC(C)(N)C(=O)N1CCN(C(=O)Nc2ccn(-c3ccc(CN4C5CCC4CC(N)C5)cc3)c(=O)n2)CC1 (stereo not shown) [Compound 59] | < 0.5 | ≥ 1 | + (An MIC (μg/mL) value that is 32 μg/mL or greater) | +++ (An MIC value (μg/mL) that is less than 8 μg/mL) | +++ (An MIC value (μg/mL) that is less than 8 μg/mL) | + (An MIC (μg/mL) value that is 32 μg/mL or greater) | +++ (An MIC value (μg/mL) that is less than 8 μg/mL) |  |  |  |  |  |  |  |  |  |  |  |  |
| NC[C@@H]1[C@H]2CN(CCc3ccc(-n4ccc(NC(=O)N5CCC6(CCNC6)C5)nc4=O)cc3)C[C@@H]12 (stereo partly shown) [Compound 145] | ≥ 1 | ≥ 1 |  |  |  |  |  | > 32 | > 32 | 8 to 32 | > 32 | < 8 |  |  |  |  |  |  |  |
| CC(C)(N)C(=O)N1CCN(C(=O)Nc2ccn(-c3cccc(CCN4CC5CCC(C4)C5N)c3)c(=O)n2)CC1 (stereo not shown) [Compound 113] | ≥ 1 | ≥ 1 |  |  |  |  |  | > 32 | > 32 | > 32 | > 32 | < 8 |  |  |  |  |  |  |  |
| CC(Cc1ccc(-n2ccc(NC(=O)N3CCN(C(=O)C(C)(C)N)CC3)nc2=O)cc1)N(CC(F)(F)F)C1CC2(CC(N)C2)C1 (stereo not shown) [Compound 195] |  |  |  |  |  |  |  |  |  |  |  |  | ≥ 1 | ≥ 1 | > 32 | > 32 | 8 to 32 | > 32 | > 32 |
| CC(C)(N)C(=O)N1CCN(C(=O)Nc2ccn(-c3ccc(OCCN4C[C@@H]5[C@@H](CN)[C@@H]5C4)cc3)c(=O)n2)CC1 [Compound 187] |  |  |  |  |  |  |  |  |  |  |  |  | < 0.5 | ≥ 1 | 8 to 32 | < 8 | < 8 | 8 to 32 | < 8 |
| CC(C)(N)C(=O)N1CCN(C(=O)Nc2ccn(-c3ccc(C(N)C(=O)N4C[C@@H]5[C@@H](N)[C@@H]5C4)cc3)c(=O)n2)CC1 (stereo partly shown) [Compound 105] | ≥ 1 | ≥ 1 |  |  |  |  |  | > 32 | > 32 | > 32 | > 32 | > 32 |  |  |  |  |  |  |  |
| CC(C)(N)C(=O)N1CCN(C(=O)Nc2ccn(-c3ccc(CCN4CCC5CC5(N)C4)c(F)c3)c(=O)n2)CC1 (stereo not shown) [Compound 100] | < 0.5 | ≥ 1 |  |  |  |  |  | 8 to 32 | < 8 | < 8 | > 32 | < 8 |  |  |  |  |  |  |  |
| CCC(Cc1ccc(-n2ccc(NC(=O)N3CCN(C(=O)C(C)(C)N)CC3)nc2=O)cc1)N1CC2CCCC(N)C2C1 (stereo not shown) [Compound 219] |  |  |  |  |  |  |  |  |  |  |  |  | < 0.5 | ≥ 1 | > 32 | < 8 | < 8 | > 32 | < 8 |
| CNCC(=O)N1CCN(C(=O)Nc2ccn(-c3ccc(CC(C)N4C[C@@H]5[C@@H](CN)[C@@H]5C4)cc3)c(=O)n2)CC1 (stereo partly shown) [Compound 236] |  |  |  |  |  |  |  |  |  |  |  |  | ≥ 1 | ≥ 1 | > 32 | > 32 | 8 to 32 | > 32 | < 8 |
| C[C@@H]1CN(C(=O)Nc2ccn(-c3ccc(CN4C[C@@H]5[C@@H](N)[C@@H]5C4)cc3)c(=O)n2)CCN1C(=O)[C@@](C)(N)CO [Compound 45] | < 0.5 | ≥ 1 |  |  |  |  |  | > 32 | < 8 | < 8 | 8 to 32 | < 8 |  |  |  |  |  |  |  |
| C[C@@H](Cc1ccc(-n2ccc(NC(=O)N3CCN(C(=O)C(C)(C)N)CC3)nc2=O)cc1)N1C[C@@H]2[C@@H](CN)[C@@H]2C1 [Compound 141] | < 0.5 | ≥ 1 |  |  |  |  |  | 8 to 32 | < 8 | < 8 | < 8 | < 8 |  |  |  |  |  |  |  |
| COc1cc(-n2ccc(NC(=O)N3CCN(C(=O)C(C)(C)N)CC3)nc2=O)ccc1CCN1CC2CC2(CN)C1 (stereo not shown) [Compound 133] | < 0.5 | ≥ 1 |  |  |  |  |  | > 32 | 8 to 32 | 8 to 32 | > 32 | < 8 |  |  |  |  |  |  |  |
| CNC[C@@H]1[C@H]2CN(Cc3ccc(-n4ccc(NC(=O)N5CCN(C(=O)C(C)(C)N)CC5)nc4=O)cc3)C[C@@H]12 [Compound 75] | < 0.5 | ≥ 1 |  |  |  |  |  | > 32 | 8 to 32 | < 8 | > 32 | < 8 |  |  |  |  |  |  |  |

Source: US12692253B2, “Antimicrobial compounds and methods” (Curza Global, LLC, priority 2019, dated 2026)
